For test [1], the system named is Plasmodium berghei (Pb-Luc) exoerythrocytic-stage parasites. To be noted: for normalised signal at concentration 10 (first series): concentration 10, first series of dose columns; for normalised signal at concentration 10 (second series): concentration 10, second series of dose columns; for IC50: read-out: PbLuc_IC50; for normalized signal at concentration 0.000508053 / normalized signal at concentration 0.00152416 / normalized signal at concentration 0.00457247 / normalized signal at concentration 0.0137174 / normalized signal at concentration 0.0411523 / normalized signal at concentration 0.123457 / normalized signal at concentration 0.37037 / normalized signal at concentration 1.11111 / normalized signal at concentration 3.33333 / normalized signal at concentration 10: fraction of control.

The test system of a further test is HepG2-A16-CD81EGFP cells. To be noted: for IC50: read-out: Tox_IC50, HepG2 cytotoxicity.
[2] abbreviates: sheet "2nd round", Broad compounds, dose response top concentration 10.
Setting [3] is: second series of columns (replicate).
Where [4] appears, read: sheet 2nd round, maximal inhibition in dose response.

SMILES strings stand for the structures. Where two headings read alike, the source gives them in different places.

For `O=C(NCc1ccc2c(c1)OCO2)[C@@H]1[C@@H](CO)[C@@H]2Cn3c(cccc3=O)[C@H]1N2Cc1cncnc1` [BRD-K31004267-001-01-6], in test [1], the “normalised signal at concentration 0.000508053 (first series)” value amounted to 0.9455, the “normalised signal at concentration 0.000508053 (second series)” value stood at 0.7294, the “normalised signal at concentration 0.00152416 (first series)” value came to 0.9922 and the “normalised signal at concentration 0.00152416 (second series)” value amounted to 1.083. Moreover, in test [1], the “normalised signal at concentration 0.00457247 (first series)” value came out at 0.9907, the “normalised signal at concentration 0.00457247 (second series)” value was 0.8279, the “normalised signal at concentration 0.0137174 (first series)” value is on record as 0.9424 and the “normalised signal at concentration 0.0137174 (second series)” value was 0.9304. In test [1], the “normalised signal at concentration 0.0411523 (first series)” value was found to be 0.8128, the “normalised signal at concentration 0.0411523 (second series)” value was found to be 1.152, the “normalised signal at concentration 0.123457 (first series)” value was 0.8401 and the “normalised signal at concentration 0.123457 (second series)” value was determined as 1.066. Besides, in test [1], the “normalised signal at concentration 0.37037 (first series)” value stood at 1.129, the “normalised signal at concentration 0.37037 (second series)” value was found to be 0.8899, the “normalised signal at concentration 1.11111 (first series)” value was 0.9661 and the “normalised signal at concentration 1.11111 (second series)” value was 0.8895. In test [1], the “normalised signal at concentration 3.33333 (first series)” value came out at 0.7673, the “normalised signal at concentration 3.33333 (second series)” value is listed as 0.9284, the “normalised signal at concentration 10 (first series)” value was determined as 1.039 and the “normalised signal at concentration 10 (second series)” value amounted to 0.9564. Moreover, the IC50 in test [1] (setting [2]) was greater than 10 µM. For the same compound, the “PbLuc_max_inhibition (%)” value in test [1] (sheet "2nd round") amounted to 27%. Besides, in the test on HepG2-A16-CD81EGFP cells (sheet "2nd round"), the IC50 was greater than 10 µM and the “Tox_max_inhibition (%)” value came to 14%.

For `C[C@H](CO)N1C[C@H](C)[C@@H](CN(C)S(=O)(=O)c2ccc(F)cc2)OCCCC[C@H](C)Oc2ccc(N(C)C)cc2C1=O` [BRD-K31169989-001-01-4], in test [1], the “normalised signal at concentration 0.000508053 (first series)” value is on record as 0.9593, the “normalised signal at concentration 0.000508053 (second series)” value amounted to 1.075, the “normalised signal at concentration 0.00152416 (first series)” value is on record as 0.7705 and the “normalised signal at concentration 0.00152416 (second series)” value was 0.9043. Moreover, in test [1], the “normalised signal at concentration 0.00457247 (first series)” value is listed as 0.8601, the “normalised signal at concentration 0.00457247 (second series)” value is 0.8661, the “normalised signal at concentration 0.0137174 (first series)” value is on record as 0.7407 and the “normalised signal at concentration 0.0137174 (second series)” value came out at 1.136. Moreover, in test [1], the “normalised signal at concentration 0.0411523 (first series)” value came out at 1.052, the “normalised signal at concentration 0.0411523 (second series)” value was determined as 0.8649, the “normalised signal at concentration 0.123457 (first series)” value was found to be 0.7251 and the “normalised signal at concentration 0.123457 (second series)” value amounted to 0.9568. In test [1], the “normalised signal at concentration 0.37037 (first series)” value was determined as 0.9029, the “normalised signal at concentration 0.37037 (second series)” value is on record as 0.9798, the “normalised signal at concentration 1.11111 (first series)” value was determined as 0.7471 and the “normalised signal at concentration 1.11111 (second series)” value stood at 0.8642. In test [1], the “normalised signal at concentration 3.33333 (first series)” value is recorded as 0.9659, the “normalised signal at concentration 3.33333 (second series)” value is listed as 0.7643, the “normalised signal at concentration 10 (first series)” value is 0.5392 and the “normalised signal at concentration 10 (second series)” value is reported as 0.607. Besides, in test [1] (setting [2]), the IC50 was greater than 10 µM. Further, in test [1] (sheet "2nd round"), the “PbLuc_max_inhibition (%)” value is 46%. Also, in the test on HepG2-A16-CD81EGFP cells (sheet "2nd round"), the IC50 was greater than 10 µM and the “Tox_max_inhibition (%)” value was determined as 13%.

Take `Cc1noc(C)c1S(=O)(=O)N(C)C[C@@H]1OCCCC[C@@H](C)Oc2ccc(N(C)C)cc2C(=O)N([C@@H](C)CO)C[C@H]1C` [BRD-K31367750-001-01-1]: in test [1] (first series of columns), the “normalized signal at concentration 0.000508053” value was found to be 1.082, the “normalized signal at concentration 0.00152416” value is on record as 1.078, the “normalized signal at concentration 0.00457247” value was found to be 1.115 and the “normalized signal at concentration 0.0137174” value is listed as 1.059. In test [1] (first series of columns), the “normalized signal at concentration 0.0411523” value is on record as 1.054, the “normalized signal at concentration 0.123457” value turned out to be 1.1, the “normalized signal at concentration 0.37037” value is given as 1.064 and the “normalized signal at concentration 1.11111” value was found to be 0.9576. Further, in test [1] (first series of columns), the “normalized signal at concentration 3.33333” value stood at 1.005 and the “normalized signal at concentration 10” value was determined as 1.057. Also, in test [1] (sheet 2nd round, Pb-Luc exoerythrocytic stage, 10-point dose response, top concentration 10), the IC50 was greater than 10 µM. In test [1] (setting [3]), the “normalized signal at concentration 0.000508053” value was 1.02, the “normalized signal at concentration 0.00152416” value is reported as 0.9419, the “normalized signal at concentration 0.00457247” value is 0.9058 and the “normalized signal at concentration 0.0137174” value came out at 0.8746. Moreover, in test [1] (setting [3]), the “normalized signal at concentration 0.0411523” value came out at 0.9045, the “normalized signal at concentration 0.123457” value worked out at 0.9742, the “normalized signal at concentration 0.37037” value was 0.91 and the “normalized signal at concentration 1.11111” value is reported as 0.8518. Moreover, in test [1] (setting [3]), the “normalized signal at concentration 3.33333” value is 0.8811 and the “normalized signal at concentration 10” value worked out at 0.9567. Further, the “PbLuc_max_inhibition (%)” value in test [1] (setting [4]) came to 15%. Further, the IC50 in the test on HepG2-A16-CD81EGFP cells (sheet 2nd round) was greater than 10 µM. Also, the “Tox_max_inhibition (%)” value in the test on HepG2-A16-CD81EGFP cells (setting [4]) is listed as 10%.

As for `C[C@H]1CCCCO[C@@H](CN(C)S(=O)(=O)c2ccc(F)cc2)[C@@H](C)CN([C@@H](C)CO)C(=O)c2cc(N(C)C)ccc2O1` [BRD-K31467596-001-01-7], in test [1], the “normalised signal at concentration 0.000508053 (first series)” value worked out at 0.9636, the “normalised signal at concentration 0.000508053 (second series)” value stood at 1.196, the “normalised signal at concentration 0.00152416 (first series)” value was 0.9009 and the “normalised signal at concentration 0.00152416 (second series)” value stood at 1.029. Further, in test [1], the “normalised signal at concentration 0.00457247 (first series)” value is given as 1.0859, the “normalised signal at concentration 0.00457247 (second series)” value is reported as 1.054, the “normalised signal at concentration 0.0137174 (first series)” value is on record as 0.8351 and the “normalised signal at concentration 0.0137174 (second series)” value is 0.885. Further, in test [1], the “normalised signal at concentration 0.0411523 (first series)” value is listed as 0.8724, the “normalised signal at concentration 0.0411523 (second series)” value is given as 1.048, the “normalised signal at concentration 0.123457 (first series)” value turned out to be 0.8924 and the “normalised signal at concentration 0.123457 (second series)” value was found to be 0.8988. For the same compound, in test [1], the “normalised signal at concentration 0.37037 (first series)” value worked out at 0.8075, the “normalised signal at concentration 0.37037 (second series)” value is recorded as 0.9035, the “normalised signal at concentration 1.11111 (first series)” value worked out at 1.0319 and the “normalised signal at concentration 1.11111 (second series)” value is reported as 1.046. Further, in test [1], the “normalised signal at concentration 3.33333 (first series)” value was 0.9413, the “normalised signal at concentration 3.33333 (second series)” value is 0.9885, the “normalised signal at concentration 10 (first series)” value worked out at 0.7997 and the “normalised signal at concentration 10 (second series)” value is 0.6635. In addition, the IC50 in test [1] (setting [2]) is greater than 10 µM. In test [1] (sheet "2nd round"), the “PbLuc_max_inhibition (%)” value is on record as 34%. In the test with HepG2-A16-CD81EGFP cells (sheet "2nd round"), the IC50 is greater than 10 µM and the “Tox_max_inhibition (%)” value worked out at 19%.

Values taken from PMC4890880 (ACS infectious diseases, 2016).
